Where “and” joins values, the source holds several entries; their conditions need not be identical. Identical values can stand only once. Inconclusive results and toxic doses are left out.
Tested on: BDF1 mice, P388 leukemia ip, median survival T/C
Test: NCI In Vivo Anticancer Drug Screen. Data for tumor model P388 Leukemia (intraperitoneal) in B6D2F1 (BDF1) mice
Settings: endpoint: median survival time, higher = longer survival
Summary of the method: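 Mice carrying the transplantable tumour receive compound or vehicle. Survival is followed in each arm, and the treated measure is divided by the vehicle measure.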

[1] = dose: 100.0 mg/kg/injection, schedule: Q01DX009 (ip), vehicle: saline
[2] = dose: 200.0 mg/kg/injection, schedule: Q01DX009 (ip), vehicle: saline

Question: What does the source list for `CC(C)=CC(=O)OCC1CC[N+](C)([O-])C1` (stereo not drawn)?
Answer: T/C [1]: 100 % of control; T/C (dose: 200.0 mg/kg/injection, schedule: Q01DX001 (ip), vehicle: saline): 95 % of control; T/C [2]: 91 % of control; T/C (dose: 400.0 mg/kg/injection, schedule: Q01DX009 (ip), vehicle: saline): 103 % of control; T/C (dose: 800.0 mg/kg/injection, schedule: Q01DX001 (ip), vehicle: saline): 91 % of control; T/C (dose: 800.0 mg/kg/injection, schedule: Q01DX009 (ip), vehicle: saline): 103 % of control

Question: `c1ccc(CN(CCNc2ccccc2)c2ccccc2)cc1` was tested. Which T/C (dose: 0.78 mg/kg/injection, schedule: Q01DX009 (ip), vehicle: water) did it give?
Answer: 106 % of control

Question: What about the T/C (dose: 1.56 mg/kg/injection, schedule: Q01DX009 (ip), vehicle: water) of the same compound?
Answer: 104 % of control

Question: And the T/C (dose: 3.12 mg/kg/injection, schedule: Q01DX009 (ip), vehicle: water)?
Answer: 108 % of control

Question: What about the T/C (dose: 6.25 mg/kg/injection, schedule: Q01DX009 (ip), vehicle: water) of the same compound?
Answer: 104 % of control

Question: And the T/C (dose: 12.5 mg/kg/injection, schedule: Q01DX009 (ip), vehicle: water)?
Answer: 106 % of control

Question: And the T/C (dose: 25.0 mg/kg/injection, schedule: Q01DX009 (ip), vehicle: water)?
Answer: 92 % of control

Question: And the T/C (dose: 50.0 mg/kg/injection, schedule: Q01DX009 (ip), vehicle: water)?
Answer: 92 % of control

Question: And the T/C (dose: 50.0 mg/kg/injection, schedule: Q04DX003 (ip), vehicle: water)?
Answer: 100 % of control

Question: And the T/C (dose: 100.0 mg/kg/injection, schedule: Q01DX009 (ip), vehicle: water)?
Answer: 115 % of control

Question: And the T/C (dose: 100.0 mg/kg/injection, schedule: Q04DX003 (ip), vehicle: water)?
Answer: 98 % of control

Question: What about the T/C (dose: 200.0 mg/kg/injection, schedule: Q01DX009 (ip), vehicle: water) of the same compound?
Answer: 97 % of control

Question: And the T/C (dose: 200.0 mg/kg/injection, schedule: Q04DX003 (ip), vehicle: water)?
Answer: 103 % of control

Question: Which T/C (dose: 5.0 mg/kg/injection, schedule: Q01DX009 (ip), vehicle: saline) does the source give for `N#CC1CCCC1=O` (stereo not drawn) here?
Answer: 108 % of control

Question: What about the T/C (dose: 10.0 mg/kg/injection, schedule: Q01DX009 (ip), vehicle: saline) of the same compound?
Answer: 91 % of control

Question: What does the source list for `Cc1cccc(C(=O)/C=C/c2ccc(OCc3ccccc3)cc2)c1`?
Answer: T/C (dose: 50.0 mg/kg/injection, schedule: Q01DX009 (ip), vehicle: saline with Tween-80): 91 % of control; T/C (dose: 100.0 mg/kg/injection, schedule: Q01DX009 (ip), vehicle: saline with Tween-80): 91 % of control; T/C (dose: 200.0 mg/kg/injection, schedule: Q01DX009 (ip), vehicle: saline with Tween-80): 89 % of control

Question: `CCCCCCCCCCCC(=O)N(C)C` was tested. Which T/C (dose: 100.0 mg/kg/injection, schedule: Q01DX009 (ip), vehicle: Klucel (hydroxypropylcellulose) (HPC)) did it give?
Answer: 105 % of control

Question: And the T/C (dose: 100.0 mg/kg/injection, schedule: Q04DX003 (ip), vehicle: Klucel (hydroxypropylcellulose) (HPC))?
Answer: 104 % of control

Question: And the T/C (dose: 200.0 mg/kg/injection, schedule: Q01DX009 (ip), vehicle: Klucel (hydroxypropylcellulose) (HPC))?
Answer: 105 % of control

Question: And the T/C (dose: 200.0 mg/kg/injection, schedule: Q04DX003 (ip), vehicle: Klucel (hydroxypropylcellulose) (HPC))?
Answer: 100 % of control

Question: And the T/C (dose: 400.0 mg/kg/injection, schedule: Q04DX003 (ip), vehicle: Klucel (hydroxypropylcellulose) (HPC))?
Answer: 100 % of control

Question: With `Nc1nc(F)nc2c1ncn2C1OC(CO)C(O)C1O` (stereo not drawn) as the compound, how does the T/C (dose: 0.5 mg/kg/injection, schedule: Q01DX010 (ip), vehicle: saline) read?
Answer: 90 % of control and 108 % of control

Question: What about the T/C (dose: 1.0 mg/kg/injection, schedule: Q01DX010 (ip), vehicle: saline) of the same compound?
Answer: 100 % of control and 108 % of control

Question: And the T/C (dose: 2.0 mg/kg/injection, schedule: Q01DX010 (ip), vehicle: saline)?
Answer: 110 % of control and 120 % of control

Question: What about the T/C (dose: 4.0 mg/kg/injection, schedule: Q01DX010 (ip), vehicle: saline) of the same compound?
Answer: 105 % of control and 112 % of control

Question: For `Nc1ccn([C@@H](C=O)O[C@@H](C=O)CO)c(=O)n1`, which T/C (dose: 8.8 mg/kg/injection, schedule: Q01DX009 (ip), vehicle: saline) is on record?
Answer: 115 % of control

Question: What about the T/C (dose: 66.0 mg/kg/injection, schedule: Q04DX003 (ip), vehicle: saline) of the same compound?
Answer: 100 % of control

Question: And the T/C (dose: 100.0 mg/kg/injection, schedule: Q04DX003 (ip), vehicle: saline)?
Answer: 112 % of control

Question: What about the T/C (dose: 150.0 mg/kg/injection, schedule: Q04DX003 (ip), vehicle: saline) of the same compound?
Answer: 120 % of control

Question: And the T/C (dose: 200.0 mg/kg/injection, schedule: Q04DX003 (ip), vehicle: saline)?
Answer: 150 % of control

Question: And the T/C (dose: 400.0 mg/kg/injection, schedule: Q04DX003 (ip), vehicle: saline)?
Answer: 181 % of control

Question: How did the T/C (dose: 25.0 mg/kg/injection, schedule: Q01DX005 (ip), vehicle: distilled water + Tween-80) turn out when `COP(=O)(O)C(Cc1ccccc1)NC(=O)OCc1ccccc1` (stereo not drawn) was run?
Answer: 100 % of control

Question: What about the T/C (dose: 50.0 mg/kg/injection, schedule: Q01DX005 (ip), vehicle: distilled water + Tween-80) of the same compound?
Answer: 100 % of control

Question: And the T/C (dose: 100.0 mg/kg/injection, schedule: Q01DX005 (ip), vehicle: distilled water + Tween-80)?
Answer: 94 % of control

Question: `CCN(/C=C/C=C1C(=O)N(C)C(=O)N(C)C1=O)CC` was tested. Which T/C (dose: 50.0 mg/kg/injection, schedule: Q01DX009 (ip), vehicle: saline) did it give?
Answer: 100 % of control

Question: What about the T/C [1] of the same compound?
Answer: 102 % of control

Question: What about the T/C [2] of the same compound?
Answer: 100 % of control

Question: How did the T/C (dose: 250.0 mg/kg/injection, schedule: Q04DX003 (ip), vehicle: saline) turn out when `OC1COC(O)C(O)C1O` (stereo not drawn) was run?
Answer: 102 % of control

Question: What about the T/C (dose: 500.0 mg/kg/injection, schedule: Q04DX003 (ip), vehicle: saline) of the same compound?
Answer: 100 % of control

Question: And the T/C (dose: 1000.0 mg/kg/injection, schedule: Q04DX003 (ip), vehicle: saline)?
Answer: 100 % of control

Question: And the T/C (dose: 2000.0 mg/kg/injection, schedule: Q04DX003 (ip), vehicle: saline)?
Answer: 111 % of control

From PubChem BioAssay AID328 (DTP/NCI, 2004)
